The source of these data is patent publication US20210393621A1, “COMBINATION SEROTONIN SPECIFIC REUPTAKE INHIBITOR AND SEROTONIN 1A RECEPTOR PARTIAL AGONIST FOR REDUCING L-DOPA-INDUCED DYSKINESIA” (The Research Foundation for The State University of new York, priority 2018, published 2021).

The target in experiment [1] is T1, 5-HT1A receptor (Homo sapiens, UniProt P08908).
T1 sequence (P08908 1-422): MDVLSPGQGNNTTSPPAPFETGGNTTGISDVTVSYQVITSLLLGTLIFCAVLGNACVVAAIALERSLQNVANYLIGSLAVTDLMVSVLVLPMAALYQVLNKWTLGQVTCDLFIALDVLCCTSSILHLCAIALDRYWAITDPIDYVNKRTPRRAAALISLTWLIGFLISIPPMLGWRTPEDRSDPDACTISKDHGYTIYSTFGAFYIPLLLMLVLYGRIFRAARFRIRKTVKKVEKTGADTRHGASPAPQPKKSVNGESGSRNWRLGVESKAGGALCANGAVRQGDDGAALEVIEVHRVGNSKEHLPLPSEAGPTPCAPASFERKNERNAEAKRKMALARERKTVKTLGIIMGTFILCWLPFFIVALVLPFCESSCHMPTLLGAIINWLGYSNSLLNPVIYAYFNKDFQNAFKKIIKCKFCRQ
The note with it: cited from earlier work.

Experiment [2] concerns the target T1, 5-HT1A receptor. Also on record: expressed in transfected cells; host or cells: SF9 cells. The note with it: 5-HT1A receptor expressed in SF9 cells; cited from earlier work.
Experiment [3] has as its system MSNs of dyskinetic 6-OHDA-lesioned rats. The experiment is described as follows: Example 2: electrophysiology of corticostriatal transmission and striatal MSN activity. The experiment is classed as in vivo. The note with it: vilazodone co-administration with L-DOPA. Here is the method:
Rats were treated for 5 consecutive days/week, for 2 weeks. On the second day of each week, stepping tests were performed prior to drug administration, and 60 minutes post L-DOPA treatment. Behavioral assessment of LIDs was performed (30-180 min) at the end of each week. […] Electrophysiological studies were conducted to assess the impact of these treatments on corticostriatal transmission and striatal neuronal activity.

In experiment [4] the test system is 6-OHDA-lesioned hemi-parkinsonian rats. The experiment is described as follows: Experiment 1: forepaw adjusting steps (FAS). In kind it is in vivo, Sprague-Dawley rats. From the text: Conti et al., 2014). […] Forepaw adjusting steps (FAS): The FAS test is a measure of forelimb akinesia performed according to previous protocols (Bishop et al., 2012; Chang et al., 1999). Data are presented as mean percent intact stepping where the sum of the total steps with the lesioned forepaw was divided by the total steps with the unlesioned forepaw multiplied by 100. Lower percent intact scores indicate greater forelimb akinesia. Prior to baseline, rats received 2 acclimation periods. On-treatment FAS was performed 60 min post-L-DOPA.

In experiment [5] the test system is unilateral 6-OHDA-lesioned rats. The experiment is described as follows: Example 2: L-DOPA-induced dyskinesias (LIDs) scoring. In kind it is in vivo, Sprague-Dawley rats. The following applies: pretreatment with vilazodone 10 mg/kg or escitalopram 12.5 mg/kg before L-DOPA 5 mg/kg, 2 weeks; hydrochloride. The procedure: 6-OHDA-induced dopaminergic lesions: Adult male Sprague-Dawley rats were randomly assigned to groups receiving either a 6-OHDA or sham lesion. […] [[…] 2019]. […] Rats were treated for 5 consecutive days/week (Mon-Fri), for 2 weeks. […] All rats were evaluated three times per week for the presence of L-DOPA-induced dyskinesias (LIDs) (Wed-Fri) and once for the stepping test (Tue). […] Scores were given over 1 min epochs and classified as axial, limb, orolingual and locomotive. […] Arrows=inhibitory input; dashed arrows=compromised function. The severity of each LID was scored using a standard scale. Each dyskinetic behavior was given an intensity and frequency score, which were then multiplied. The average sum of the products of each LID was determined in each animal.

For experiment [6], the system named is L-DOPA-primed 6-OHDA-lesioned rats. As to the kind of experiment: Experiment 3: AIMs with 5-HT1AR or 5-HT1BR antagonist before Vilazodone and L-DOPA. In kind it is in vivo, Sprague-Dawley rats.
Procedure: In each study, the LD-primed rats received (FIG. 4A) the 5-HT1AR antagonist WAY100635 [WAY; 0 or 0.5 mg/kg, s.c.] or (FIG. 4B) the 5-HT1BR antagonist NAS [NAS; 0 or 0.3 mg/kg, s.c.]) 5 min prior to VZD (0 or 10 mg/kg, s.c.) injected 5 min prior to LD (6 mg/kg, s.c.) in a within-subjects counterbalanced design. ALO AIMs were evaluated and are shown for every 10 min for 3 h after LD administration.
All 6-OHDA-lesioned rats (n=17) were tested on the FAS prior to treatment regimens to establish baseline motor performance. Three-weeks post-surgery, all rats were primed with L-DOPA (6 mg/kg, s.c.) for 14 days.
Beginning 10 min post-treatment, a trained and blinded observer assigned a severity score (0-4) to each of the ALO AIMs based on 1 min ratings every 10 min for 3 h: 0, not present; 1, present from 1-29 s; 2, present 30-59 s; 3, present all 60 s, but interruptible by a cylinder tap; 4, present 60 s and not interruptible by a cylinder tap.

Entries after “also recorded” stand apart in the source; their conditions may differ.

Take `Cl.N#Cc1ccc2[nH]cc(CCCCN3CCN(c4ccc5oc(C(N)=O)cc5c4)CC3)c2c1` [Vilazodone, 5-{4-[4-(5-cyano-3-indolyl)-butyl]-1-piperazinyl}-benzofuran-2-carboxamide hydrochloride]: on 5-HT1A receptor [1], the “5-HT1A receptor IA” value was 60-70%. For the same compound, the “increase of [35S]GTPγS binding compared to vehicle” value on 5-HT1A receptor [2] is on record as “fourfold”. Moreover, in experiment [3], the “spike probability and onset latency” value is “normalizes spike probability and onset latency”. Moreover, in experiment [4] (L-DOPA-primed rats, VZD 0, 10 or 20 mg/kg + L-DOPA 6 mg/kg, 60 min post-L-DOPA), the “FAS motor performance versus baseline” value is on record as “improvements in rats treated with Vilazodone emerged 7 days later”. Besides, the “FAS stepping versus Vilazodone (0 mg/kg)+L-DOPA (6 mg/kg)” value in experiment [4] (VZD 20 mg/kg, Day 29, effect transient) is recorded as “depressed stepping”. Moreover, the “LIDs score / severity” value in experiment [5] is reported as “most significant effect on attenuating LIDs; also recorded: significantly reduced LIDs”. Moreover, the “ALO AIMs, 5-HT1BR study” value in experiment [6] (NAS-181 0 or 3.0 mg/kg, then VZD 0 or 10 mg/kg, then L-DOPA 6 mg/kg, s.c.) is on record as “significantly reduced ALO AIMs”. Moreover, in experiment [6] (VZD 10 mg/kg + L-DOPA 6 mg/kg), the “LID duration, time course” value was “little effect on LID duration” and the “peak dyskinesia, time course” value is given as “reduced peak dyskinesia”. In experiment [6] (WAY100635 0 or 0.5 mg/kg, then VZD 0 or 10 mg/kg, then L-DOPA 6 mg/kg, s.c.), the “summed ALO AIMs, 5-HT1AR study” value is listed as “significantly reduced ALO AIMs”.
